Reference: US8637484B2, “Modulation of growth hormone receptor expression and insulin-like growth factor expression” (Antisense Therapeutic Limited, priority 2003, dated 2014)
In the oligonucleotide strings, read from the 5' end, every base follows the letter of its sugar. An asterisk marks phosphorothioate; unmarked linkages are phosphodiester. Other units and linkages are bracketed, terminal groups are in braces. A string of capitals states the bases alone. e = 2'-O-(2-methoxyethyl) (MOE); [5mC] = 5-methylcytosine; d = 2'-deoxy (DNA)

Tested on: human growth hormone receptor mRNA
Test: Inhibition of human growth hormone receptor mRNA levels in MCF7 cells, quantitative real-time PCR
Assay type: cell-based
Design: concentration or dose not given beside the values
Details: averages from three experiments
Description: The human breast carcinoma cell line MCF-7 was obtained from the American Type Culture Collection (Manassas, Va.). MCF-7 cells were routinely cultured in DMEM low glucose (Gibco/Life Technologies, Gaithersburg, Md.) supplemented with 10% fetal calf serum (Gibco/Life Technologies, Gaithersburg, Md.). Cells were routinely passaged by trypsinization and dilution when they reached 90% confluence. Cells were seeded into 96-well plates (Falcon-Primaria #3872) at a density of 7000 cells/well for use in RT-PCR analysis.
When cells reached 65-75% confluency, they were treated with oligonucleotide. For cells grown in 96-well plates, wells were washed once with 100 μL OPTI-MEM™-1 reduced-serum medium (Invitrogen Corporation, Carlsbad, Calif.) and then treated with 130 μL of OPTI-MEM™-1 containing 3.75 μg/mL LIPOFECTIN™ (Invitrogen Corporation, Carlsbad, Calif.) and the desired concentration of oligonucleotide. Cells are treated and data are obtained in triplicate. After 4-7 hours of treatment at 37° C., the medium was replaced with fresh medium. Cells were harvested 16-24 hours after oligonucleotide treatment.
Total RNA was isolated using an RNEASY 96™ kit and buffers purchased from Qiagen Inc. (Valencia, Calif.) following the manufacturer's recommended procedures. Briefly, for cells grown on 96-well plates, growth medium was removed from the cells and each well was washed with 200 μL cold PBS. 150 μL Buffer RLT was added to each well and the plate vigorously agitated for 20 seconds. 150 μL of 70% ethanol was then added to each well and the contents mixed by pipetting three times up and down. The samples were then transferred to the RNEASY 96™ well plate attached to a QIAVAC™ manifold fitted with a waste collection tray and attached to a vacuum source. Vacuum was applied for 1 minute. 500 μL of Buffer RW1 was added to each well of the RNEASY 96™ plate and incubated for 15 minutes and the vacuum was again applied for 1 minute. An additional 500 μL of Buffer RW1 was added to each well of the RNEASY 96™ plate and the vacuum was applied for 2 minutes. 1 mL of Buffer RPE was then added to each well of the RNEASY 96™ plate and the vacuum applied for a period of 90 seconds. The Buffer RPE wash was then repeated and the vacuum was applied for an additional 3 minutes. The plate was then removed from the QIAVAC™ manifold and blotted dry on paper towels. The plate was then re-attached to the QIAVAC™ manifold fitted with a collection tube rack containing 1.2 mL collection tubes. RNA was then eluted by pipetting 140 μL of RNAse free water into each well, incubating 1 minute, and then applying the vacuum for 3 minutes.
Quantitation of growth hormone receptor mRNA levels was accomplished by real-time quantitative PCR using the ABI PRISM™ 7600, 7700, or 7900 Sequence Detection System (PE-Applied Biosystems, Foster City, Calif.) according to manufacturer's instructions. This is a closed-tube, non-gel-based, fluorescence detection system which allows high-throughput quantitation of polymerase chain reaction (PCR) products in real-time. As opposed to standard PCR in which amplification products are quantitated after the PCR is completed, products in real-time quantitative PCR are quantitated as they accumulate. This is accomplished by including in the PCR reaction an oligonucleotide probe that anneals specifically between the forward and reverse PCR primers, and contains two fluorescent dyes. A reporter dye (e.g., FAM or JOE, obtained from either PE-Applied Biosystems, Foster City, Calif., Operon Technologies Inc., Alameda, Calif. or Integrated DNA Technologies Inc., Coralville, Iowa) is attached to the 5′ end of the probe and a quencher dye (e.g., TAMRA, obtained from either PE-Applied Biosystems, Foster City, Calif., Operon Technologies Inc., Alameda, Calif. or Integrated DNA Technologies Inc., Coralville, Iowa) is attached to the 3′ end of the probe. When the probe and dyes are intact, reporter dye emission is quenched by the proximity of the 3′ quencher dye. […]

Row | Substance | % INHIB [%]
1 | 227452 (antisense eT*e[5mC]*eA*eG*eG*dG*d[5mC]*dA*dT*dT*d[5mC]*dT*dT*dT*d[5mC]*e[5mC]*eA*eT*eT*e[5mC]) [compound 227452] | 79
2 | 227453 (antisense e[5mC]*eA*eT*eA*eA*dT*d[5mC]*dA*dG*dG*dG*d[5mC]*dA*dT*dT*e[5mC]*eT*eT*eT*e[5mC]) [compound 227453] | 52
3 | 227464 (antisense e[5mC]*e[5mC]*eT*eT*eT*dA*dA*dT*d[5mC]*dT*dT*dT*dG*dG*dA*eA*e[5mC]*eT*eG*eG) [compound 227464] | 58
4 | 227468 (antisense eT*e[5mC]*eA*eT*e[5mC]*dA*dA*dT*dA*dT*d[5mC]*dT*dA*dG*d[5mC]*eT*e[5mC]*eA*eA*eT) [compound 227468] | 62
5 | 227469 (antisense e[5mC]*eT*eT*eA*eG*dA*dA*dG*dT*d[5mC]*dT*dG*dT*d[5mC]*dT*eG*eT*eG*eT*e[5mC]) [compound 227469] | 63
6 | 227475 (antisense e[5mC]*e[5mC]*eT*eG*e[5mC]*dT*dG*dG*dT*dG*dT*dA*dA*dT*dG*eT*e[5mC]*eG*e[5mC]*eT) [compound 227475] | 68
7 | 227480 (antisense eA*eT*eG*eT*eA*dA*dA*dT*dG*dT*d[5mC]*d[5mC]*dT*d[5mC]*dT*eT*eG*eG*eT*eT) [compound 227480] | 66
8 | 227481 (antisense eT*eG*eG*eT*eG*dA*dT*dG*dT*dA*dA*dA*dT*dG*dT*e[5mC]*e[5mC]*eT*e[5mC]*eT) [compound 227481] | 45
9 | 227482 (antisense eT*eT*e[5mC]*eT*eG*dT*dG*dG*dT*dG*dA*dT*dG*dT*dA*eA*eA*eT*eG*eT) [compound 227482] | 53
10 | 227483 (antisense eA*eG*eG*e[5mC]*eT*dT*dT*d[5mC]*dT*dG*dT*dG*dG*dT*dG*eA*eT*eG*eT*eA) [compound 227483] | 75
11 | 227484 (antisense eT*eG*eG*eT*eA*dA*dG*dG*d[5mC]*dT*dT*dT*d[5mC]*dT*dG*eT*eG*eG*eT*eG) [compound 227484] | 63
12 | 227488 (antisense eA*eG*eT*eT*eG*dG*dT*d[5mC]*dT*dG*dT*dG*d[5mC]*dT*d[5mC]*eA*e[5mC]*eA*eT*eA) [compound 227488] | 86
13 | 227489 (antisense eT*eG*eT*eT*e[5mC]*dA*dG*dT*dT*dG*dG*dT*d[5mC]*dT*dG*eT*eG*e[5mC]*eT*e[5mC]) [compound 227489] | 75
14 | 227490 (antisense eG*e[5mC]*eA*eT*eG*dA*dT*dT*dT*dT*dG*dT*dT*d[5mC]*dA*eG*eT*eT*eG*eG) [compound 227490] | 67
15 | 227499 (antisense eT*eA*eT*eA*eA*dA*dA*dG*dG*dG*d[5mC]*dT*dT*dT*dG*eT*eA*eA*eA*eA) [compound 227499] | 14
16 | 227500 (antisense e[5mC]*eA*eT*eA*eG*d[5mC]*dA*dG*d[5mC]*dA*dA*dA*dG*dT*dA*eG*e[5mC]*eA*eG*eA) [compound 227500] | 69
17 | 227501 (antisense eG*e[5mC]*eT*eA*eT*dT*dT*dT*dT*dG*dG*d[5mC]*dT*dA*dT*eA*eG*eA*eA*eA) [compound 227501] | 64
18 | 227502 (antisense eG*eA*eT*eT*eG*dA*dG*dG*dT*dA*dT*dT*dT*dA*dG*e[5mC]*eT*eA*eT*eT) [compound 227502] | 56
19 | 272302 (antisense eG*eA*eT*e[5mC]*e[5mC]*dA*dT*dA*d[5mC]*d[5mC]*dT*dG*dT*dA*dG*eG*eA*e[5mC]*e[5mC]*eT) [compound 272302] | 60
20 | 272303 (antisense e[5mC]*e[5mC]*eA*eG*eA*dG*dA*dT*d[5mC]*d[5mC]*dA*dT*dA*d[5mC]*d[5mC]*eT*eG*eT*eA*eG) [compound 272303] | 55

Row | Substance | % INHIB [%]
21 | 272304 (antisense eT*eG*e[5mC]*eT*eA*dA*dG*dG*dA*dT*dA*dG*d[5mC]*dT*dG*e[5mC]*eT*eG*eT*eG) [compound 272304] | 48
22 | 272305 (antisense eT*eT*eG*eT*e[5mC]*dT*dT*dT*dA*dG*dG*d[5mC]*d[5mC]*dT*dG*eG*eA*eT*eT*eA) [compound 272305] | 68
23 | 272306 (antisense eT*eT*eA*eG*eA*dA*dG*dA*dA*dT*dT*dT*dG*dT*d[5mC]*eT*eT*eT*eA*eG) [compound 272306] | 13
24 | 272307 (antisense eG*eT*eG*eA*eA*dT*dT*dT*dA*dG*dG*d[5mC]*dT*d[5mC]*d[5mC]*eT*eT*eA*eG*eA) [compound 272307] | 55
25 | 272308 (antisense eG*e[5mC]*eT*eG*eT*dA*dT*dG*dG*dG*dT*d[5mC]*d[5mC]*dT*dA*eG*eG*eT*eT*e[5mC]) [compound 272308] | 57
26 | 272309 (antisense eT*eA*eA*e[5mC]*eA*dG*d[5mC]*dT*dG*dT*dT*dT*dT*d[5mC]*d[5mC]*e[5mC]*e[5mC]*eA*eG*e[5mC]) [compound 272309] | 85
27 | 272310 (antisense eT*eT*eT*e[5mC]*eA*dT*d[5mC]*d[5mC]*dA*d[5mC]*dT*dG*dT*dA*d[5mC]*e[5mC]*eA*e[5mC]*e[5mC]*eA) [compound 272310] | 76
28 | 272311 (antisense eT*eT*eG*e[5mC]*eA*d[5mC]*dT*dA*dT*dT*dT*d[5mC]*dA*dT*d[5mC]*eA*eA*e[5mC]*eA*eG) [compound 272311] | 47
29 | 272312 (antisense eG*eG*eG*eT*eG*dG*dA*dT*d[5mC]*dT*dG*dG*dT*dT*dG*e[5mC]*eA*e[5mC]*eT*eA) [compound 272312] | 57
30 | 272313 (antisense eA*eT*eT*eG*e[5mC]*dG*dT*dG*dG*dT*dG*d[5mC]*dT*dT*d[5mC]*e[5mC]*e[5mC]*eA*eT*e[5mC]) [compound 272313] | 77
31 | 272314 (antisense eT*eA*eG*eG*eG*dT*d[5mC]*d[5mC]*dA*dT*d[5mC]*dA*dT*dT*dT*eT*e[5mC]*e[5mC]*eA*eT) [compound 272314] | 56
32 | 272315 (antisense e[5mC]*eA*eA*eT*eG*dA*dG*dT*dA*d[5mC]*dA*d[5mC]*dT*dG*dG*eA*eA*e[5mC]*eT*eG) [compound 272315] | 53
33 | 272316 (antisense eA*eA*e[5mC]*eT*e[5mC]*dG*d[5mC]*d[5mC]*dA*dT*dA*dA*dT*dT*dT*e[5mC]*e[5mC]*eA*eG*eA) [compound 272316] | 64
34 | 272317 (antisense eA*eG*e[5mC]*e[5mC]*e[5mC]*dA*dA*dA*dT*dA*dT*dT*d[5mC]*d[5mC]*dA*eA*eA*eG*eA*eT) [compound 272317] | 65
35 | 272318 (antisense eT*e[5mC]*eA*eG*e[5mC]*dA*dT*dT*dT*dT*dA*dA*dT*d[5mC]*d[5mC]*eT*eT*eT*eG*e[5mC]) [compound 272318] | 55
36 | 272319 (antisense eA*eT*eT*eT*eT*d[5mC]*d[5mC]*dT*dT*d[5mC]*d[5mC]*dT*dT*dG*dA*eG*eG*eA*eG*eA) [compound 272319] | 67
37 | 272320 (antisense eA*eG*eA*eT*eT*dG*dT*dG*dT*dT*d[5mC]*dA*d[5mC]*d[5mC]*dT*e[5mC]*e[5mC]*eT*e[5mC]*eT) [compound 272320] | 70
38 | 272321 (antisense eA*eA*e[5mC]*e[5mC]*e[5mC]*dA*dA*dG*dA*dG*dT*d[5mC]*dA*dT*d[5mC]*eA*e[5mC]*eT*eG*eT) [compound 272321] | 64
39 | 272322 (antisense e[5mC]*eT*eG*eG*e[5mC]*dT*d[5mC]*dA*dT*d[5mC]*dA*dA*dT*dA*dT*e[5mC]*eT*eA*eG*e[5mC]) [compound 272322] | 84
